Measured values taken from ChEMBL document CHEMBL5303304, “EUbOPEN Chemogenomics Library - IncuCyte” (2023).

How the values were obtained:
Type in all cases: toxicity, cell-based
HEK-293T = assay: Incucyte cell viability with HEK293T; details: human, 10 µM, compound concentration 10 uM
Fibroblast = assay: Incucyte cell viability with human fibroblast; details: 10 µM, compound concentration 10 uM
U2OS = assay: Incucyte cell viability with U2OS; details: human, 10 µM, compound concentration 10 uM
Note: unitless GR value; below 1 slowed growth and below 0 cell loss.

SMILES	Growth Rate (HEK-293T; 0 h, replicate number 2)	Growth Rate (HEK-293T; 6 h, replicate number 2)	Growth Rate (Fibroblast; 6 h, replicate number 2)	Growth Rate (Fibroblast; 12 h, replicate number 2)	Growth Rate (Fibroblast; 18 h, replicate number 1)	Growth Rate (Fibroblast; 18 h, replicate number 2)	Growth Rate (U2OS; 0 h, replicate number 1)	Growth Rate (U2OS; 24 h, replicate number 2)	Growth Rate (HEK-293T; 12 h, replicate number 2)	Growth Rate (Fibroblast; 6 h, replicate number 1)	Growth Rate (U2OS; 0 h, replicate number 2)	Growth Rate (U2OS; 6 h, replicate number 1)	Growth Rate (U2OS; 12 h, replicate number 1)	Growth Rate (HEK-293T; 6 h, replicate number 1)	Growth Rate (Fibroblast; 24 h, replicate number 2)	Growth Rate (U2OS; 12 h, replicate number 2)	Growth Rate (U2OS; 18 h, replicate number 1)	Growth Rate (U2OS; 24 h, replicate number 1)	Growth Rate (Fibroblast; 24 h, replicate number 1)	Growth Rate (U2OS; 18 h, replicate number 2)	further results
CC(C)c1cc(Br)c(NC(=O)Nc2cccnc2)c(Br)c1	0.91	0.84	-0.99	0.73	-0.82	0.89	-0.34	0.98	–	–	–	–	–	–	–	–	–	–	–	–	–
COc1ccc(-n2nc3c4ccccc4[nH]cc-3c2=O)cc1	–	0.53	–	0.81	–	0.91	-0.37	–	1	-0.1	-0.98	0.7	0.89	–	–	–	–	–	–	–	Growth Rate (HEK-293T; 0 h, replicate number 1): 0.6; Growth Rate (Fibroblast; 0 h, replicate number 2): 0.74
CC1(C)Oc2ncnc(N)c2N=C1c1ccc([C@H]2CC[C@H](CC(=O)O)CC2)cc1	-0.22	0.36	–	–	–	–	0.58	–	–	0.56	-0.4	0.57	–	0.77	0.97	0.89	0.85	0.96	–	–	Growth Rate (HEK-293T; 18 h, replicate number 1): 0.89; Growth Rate (HEK-293T; 24 h, replicate number 1): 0.94; Growth Rate (HEK-293T; 24 h, replicate number 2): 0.99; Growth Rate (Fibroblast; 0 h, replicate number 1): -0.99; Growth Rate (Fibroblast; 0 h, replicate number 2): -0.9; Growth Rate (Fibroblast; 12 h, replicate number 1): 0.81; Growth Rate (U2OS; 6 h, replicate number 2): 0.92
Cn1c(C2(NC(=O)c3ccc(NCC4CCCCC4)nc3)CCC2)nc2ccc(/C=C/C(=O)O)cc21 [BI 7656]	-0.78	–	-0.44	0.82	–	–	0.79	0.93	–	–	0.24	0.81	0.92	0.41	0.72	–	–	0.92	0.94	–	Growth Rate (HEK-293T; 12 h, replicate number 1): 0.81
CC(C)(C)c1ccc(-c2coc3ccc(-c4cn[nH]c4)nc23)cc1	–	0.37	-0.95	-0.62	–	-0.24	0.77	0.63	0.72	-0.96	-0.87	–	0.97	0.67	-0.11	–	0.67	0.5	0.94	0.81	Growth Rate (HEK-293T; 18 h, replicate number 2): 0.95; Growth Rate (HEK-293T; 24 h, replicate number 2): 0.84; Growth Rate (Fibroblast; 0 h, replicate number 2): 0.44
COCc1nc2cnc3cc(-c4c(C)noc4C)c(OC[C@H]4CCNC4)cc3c2n1[C@H](C)c1ccccc1 [GSK778]	0.24	–	-0.01	0.65	0.73	–	0.09	0.7	–	0.26	-1	0.78	-0.64	–	–	0.73	–	1	0.98	0.74	Growth Rate (Fibroblast; 12 h, replicate number 1): 0.63; Growth Rate (U2OS; 6 h, replicate number 2): -0.84
C=CC(=O)Nc1cccc(C)c1Nc1ncc2cc(-c3c(Cl)c(OC)cc(OC)c3Cl)ccc2n1	–	-0.56	-0.2	0.44	0.03	0.44	-0.45	0.4	-0.45	-0.64	0.38	0.45	0.25	-0.39	0.33	0.5	0.32	0.38	0.05	0.42	Growth Rate (HEK-293T; 12 h, replicate number 1): -0.35; Growth Rate (HEK-293T; 18 h, replicate number 1): -0.32; Growth Rate (HEK-293T; 18 h, replicate number 2): -0.41; Growth Rate (HEK-293T; 24 h, replicate number 1): -0.21; Growth Rate (HEK-293T; 24 h, replicate number 2): -0.26; Growth Rate (Fibroblast; 12 h, replicate number 1): 0.12; Growth Rate (U2OS; 6 h, replicate number 2): 0.31
Cc1cc(OCCC(C)(C)O)cc(C)c1-c1ccc(F)c2c1CC[C@H]2Oc1ccc2c(c1)OC[C@H]2CC(=O)O	0.8	–	–	-0.01	–	0.57	0.95	0.84	0.86	0.77	–	0.51	0.97	0.79	0.67	0.87	0.74	0.98	–	0.88	Growth Rate (HEK-293T; 0 h, replicate number 1): 0.74; Growth Rate (HEK-293T; 12 h, replicate number 1): 0.91; Growth Rate (HEK-293T; 18 h, replicate number 1): 0.98; Growth Rate (Fibroblast; 0 h, replicate number 1): -0.99
